# Results reported in the supplement of paper PMC10307832.
# Assays:
# Assay in all cases: relative viability (nuclei count vs DMSO), 5 days (fraction); higher = more cells survive
# COR-L 105 = system: COR-L 105
# Summary of the method: (§1)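 A single step with final 0.05% Triton X-100, 1% formaldehyde and 1 ug/ml Hoechst fixed the cells and stained nuclei 5 days after treatment. Lung cancer cell lines in 1536-well plates had been treated by pin tool the day after seeding with one drug alone or a fixed anchor-drug dose plus five library-drug doses (not always all listed) in √10 steps, and nuclei were counted on 4× images. Relative viability is the ratio of nuclei in treated wells to nuclei in vehicle wells, taken as the median of duplicate plates.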
# COR-L23 = system: COR-L23
# Summary of the method: as §1
# EKVX = system: EKVX
# Summary of the method: as §1
# HARA = system: HARA
# Summary of the method: as §1
# HOP-62 = system: HOP-62
# Summary of the method: as §1
# NCI-H1355 = system: NCI-H1355
# Summary of the method: as §1
# NCI-H1395 = system: NCI-H1395
# Summary of the method: as §1
# NCI-H1734 = system: NCI-H1734
# Summary of the method: as §1
# NCI-H1755 = system: NCI-H1755
# Summary of the method: as §1
# NCI-H1793 = system: NCI-H1793
# Summary of the method: as §1
# NCI-H1993 = system: NCI-H1993
# Summary of the method: as §1
# NCI-H2009 = system: NCI-H2009
# Summary of the method: as §1
smiles,measurement,setting,value
COc1cc(N2CCC(C(N)=O)CC2)ccc1Nc1nc(N)c(Cl)c(Nc2ccccc2S(=O)(=O)C(C)C)n1 [HG-5-88-01] + COc1cc2c(Oc3ccc(NC(=O)C4(C(=O)Nc5ccc(F)cc5)CC4)cc3F)ccnc2cc1OCCCN1CCOCC1 [Foretinib] (partner 0.25 µM),relative viability,COR-L 105; first compound 0.04 µM,1.05
same,relative viability,COR-L 105; first compound 0.1265 µM,1.11
same,relative viability,COR-L 105; first compound 0.4 µM,1.16
same,relative viability,COR-L 105; first compound 1.265 µM,0.969
same,relative viability,COR-L 105; first compound 4 µM,0.629
same,relative viability,COR-L23; first compound 0.04 µM,0.903
same,relative viability,COR-L23; first compound 0.1265 µM,0.995
same,relative viability,COR-L23; first compound 0.4 µM,0.99
same,relative viability,COR-L23; first compound 1.265 µM,0.768
same,relative viability,COR-L23; first compound 4 µM,0.805
same,relative viability,EKVX; first compound 0.04 µM,0.876
same,relative viability,EKVX; first compound 0.1265 µM,0.759
same,relative viability,EKVX; first compound 0.4 µM,0.305
same,relative viability,EKVX; first compound 4 µM,0.757
same,relative viability,HARA; first compound 0.04 µM,0.917
same,relative viability,HARA; first compound 0.1265 µM,0.878
same,relative viability,HARA; first compound 0.4 µM,0.875
same,relative viability,HARA; first compound 1.265 µM,0.733
same,relative viability,HARA; first compound 4 µM,0.694
same,relative viability,HOP-62; first compound 0.04 µM,1.15
same,relative viability,HOP-62; first compound 0.1265 µM,1.12
same,relative viability,HOP-62; first compound 0.4 µM,1.01
same,relative viability,HOP-62; first compound 1.265 µM,1.13
same,relative viability,HOP-62; first compound 4 µM,1.3
same,relative viability,NCI-H1355; first compound 0.04 µM,1.01
same,relative viability,NCI-H1355; first compound 0.1265 µM,1.05
same,relative viability,NCI-H1355; first compound 0.4 µM,0.929
same,relative viability,NCI-H1355; first compound 1.265 µM,0.96
same,relative viability,NCI-H1355; first compound 4 µM,0.696
same,relative viability,NCI-H1395; first compound 0.04 µM,0.988
same,relative viability,NCI-H1395; first compound 0.1265 µM,1.06
same,relative viability,NCI-H1395; first compound 0.4 µM,1.04
same,relative viability,NCI-H1395; first compound 1.265 µM,0.859
same,relative viability,NCI-H1395; first compound 4 µM,0.999
same,relative viability,NCI-H1734; first compound 0.04 µM,1.05
same,relative viability,NCI-H1734; first compound 0.1265 µM,0.8
same,relative viability,NCI-H1734; first compound 0.4 µM,0.793
same,relative viability,NCI-H1734; first compound 1.265 µM,0.576
same,relative viability,NCI-H1734; first compound 4 µM,0.644
same,relative viability,NCI-H1755; first compound 0.04 µM,0.876
same,relative viability,NCI-H1755; first compound 0.1265 µM,0.895
same,relative viability,NCI-H1755; first compound 0.4 µM,0.863
same,relative viability,NCI-H1755; first compound 1.265 µM,0.858
same,relative viability,NCI-H1755; first compound 4 µM,0.873
same,relative viability,NCI-H1793; first compound 0.1265 µM,0.787
same,relative viability,NCI-H1793; first compound 0.4 µM,0.615
same,relative viability,NCI-H1793; first compound 4 µM,0.423
same,relative viability,NCI-H1993; first compound 0.04 µM,0.739
same,relative viability,NCI-H1993; first compound 0.1265 µM,0.727
same,relative viability,NCI-H1993; first compound 0.4 µM,0.725
same,relative viability,NCI-H1993; first compound 1.265 µM,0.586
same,relative viability,NCI-H1993; first compound 4 µM,0.623
same,relative viability,NCI-H2009; first compound 0.04 µM,1.18
same,relative viability,NCI-H2009; first compound 0.1265 µM,1.25
same,relative viability,NCI-H2009; first compound 0.4 µM,1.14
